Like-named read-outs stand apart in the source and are kept apart here.
Test: Phase 1 single-dose plasma pharmacokinetics in subjects with normal hepatic function, mild or moderate hepatic impairment
Assay type: in vivo, human
Conditions: for half-life / Tmax / concentration at 0.5 h / concentration at 1 h / concentration at 2 h / concentration at 3 h / concentration at 4 h / concentration at 6 h / concentration at 8 h / concentration at 12 h / concentration at 16 h / concentration at 24 h / concentration at 36 h / concentration at 48 h / AUC(0-t) / AUC(0-inf) / Cmax / Vd/F: human, plasma, po, 200 mg, 200 mg single oral dose
Excerpt: Patients: 27 subjects were enrolled within the following groups based on their Child-Pugh (CP) classification score: • Group 1: Matched-control healthy subjects with normal hepatic function; • Group 2: Subjects with mild hepatic impairment (CP Class A, score of 5 or 6); • Group 3: Subjects with moderate hepatic impairment (CP Class B, score of 7 to 9).
A parallel design strategy was adopted for the hepatic impairment groups. Each matched-control healthy subject (Group 1) was enrolled following the enrollment of a mild and/or moderate hepatic impairment subject and was demographically matched by age (±10 years), BMI (±20%), and sex to the enrolled hepatic impairment subject(s). Subjects with normal hepatic function were not matched to more than 1 hepatically-impaired subject within an impairment group; however, subjects with normal hepatic function could be matched to 1 subject from more than 1 hepatic impairment group.
Other noncompartmental parameters could be reported.
The paired t-test was performed separately for each hepatic impairment group and the corresponding matched healthy controls. Estimates of geometric mean ratios in primary PK parameters between each level of impaired hepatic function versus the matched healthy controls were presented along with the corresponding 90% confidence intervals (CIs) for the geometric mean ratios. The p-value assessing the difference between each impairment group and the healthy control group was presented.
The PK analysis was conducted by Covance Early Clinical Biometrics using WinNonlin Version 8.1.

[1] = Moderate Hepatic Impairment, read-out: Plasma concentration, Arithmetic Mean
[2] = Moderate Hepatic Impairment, read-out: Plasma concentration, Geometric Mean
[3] = Moderate Hepatic Impairment, read-out: Plasma concentration, Median
[4] = Normal Hepatic Function, read-out: Plasma concentration, Arithmetic Mean
[5] = Normal Hepatic Function, read-out: Plasma concentration, Geometric Mean
[6] = Normal Hepatic Function, read-out: Plasma concentration, Median

SMILES: N#CC1(c2ccc(NC(=O)c3cccnc3NCc3ccncc3)cc2)CCCC1 [Rivoceranib, N-[4-(1-cyanocyclopentyl)phenyl]-2-{[(pyridin-4-yl)methyl]amino} pyridine-3-carboxamide]
- half-life (Moderate Hepatic Impairment, read-out: t1/2, Geometric Mean (converted)): 18.4 h
- half-life (Moderate Hepatic Impairment, read-out: t1/2, Median (converted)): 18.2 h
- Tmax (Moderate Hepatic Impairment, read-out: tmax, Arithmetic Mean): 2 h
- Tmax (Moderate Hepatic Impairment, read-out: tmax, Geometric Mean): 1.8 h
- Tmax (Moderate Hepatic Impairment, read-out: tmax, Median): 2 h
- concentration at 0.5 h [1]: 115 ng/mL
- concentration at 0.5 h [2]: 57.1 ng/mL
- concentration at 0.5 h [3]: 92.2 ng/mL
- concentration at 1 h [1]: 195 ng/mL
- concentration at 1 h [2]: 140 ng/mL
- concentration at 1 h [3]: 154 ng/mL
- concentration at 2 h [1]: 190 ng/mL
- concentration at 2 h [2]: 178 ng/mL
- concentration at 2 h [3]: 170 ng/mL
- concentration at 3 h [1]: 166 ng/mL
- concentration at 3 h [2]: 154 ng/mL
- concentration at 3 h [3]: 162 ng/mL
- concentration at 4 h [1]: 134 ng/mL
- concentration at 4 h [2]: 121 ng/mL
- concentration at 4 h [3]: 132 ng/mL
- concentration at 6 h [1]: 106 ng/mL
- concentration at 6 h [2]: 96.8 ng/mL
- concentration at 6 h [3]: 93.8 ng/mL
- concentration at 8 h [1]: 85.5 ng/mL
- concentration at 8 h [2]: 80.3 ng/mL
- concentration at 8 h [3]: 85 ng/mL
- concentration at 12 h [1]: 62.3 ng/mL
- concentration at 12 h [2]: 58.2 ng/mL
- concentration at 12 h [3]: 54.2 ng/mL
- concentration at 16 h [1]: 52.6 ng/mL
- concentration at 16 h [2]: 45.3 ng/mL
- concentration at 16 h [3]: 43.4 ng/mL
- concentration at 24 h [1]: 44.3 ng/mL
- concentration at 24 h [2]: 38.7 ng/mL
- concentration at 24 h [3]: 36.5 ng/mL
- concentration at 36 h [1]: 24 ng/mL
- concentration at 36 h [2]: 20.9 ng/mL
- concentration at 36 h [3]: 24.9 ng/mL
- concentration at 48 h [1]: 17.4 ng/mL
- concentration at 48 h [2]: 18.1 ng/mL
- concentration at 48 h [3]: 15.5 ng/mL
- AUC(0-t) (Normal Hepatic Function, read-out: AUC0-t, Arithmetic Mean): 2690 ng·h/mL
- AUC(0-t) (Normal Hepatic Function, read-out: AUC0-t, Geometric Mean): 2560 ng·h/mL
- AUC(0-t) (Normal Hepatic Function, read-out: AUC0-t, Median): 2780 ng·h/mL
- AUC(0-inf) (Normal Hepatic Function, read-out: AUC0-∞, Arithmetic Mean): 3180 ng·h/mL
- AUC(0-inf) (Normal Hepatic Function, read-out: AUC0-∞, Geometric Mean): 3050 ng·h/mL
- AUC(0-inf) (Normal Hepatic Function, read-out: AUC0-∞, Median): 2880 ng·h/mL
- Cmax (Normal Hepatic Function, read-out: Cmax, Arithmetic Mean): 271 ng/mL
- Cmax (Normal Hepatic Function, read-out: Cmax, Geometric Mean): 250 ng/mL
- Cmax (Normal Hepatic Function, read-out: Cmax, Median): 270 ng/mL
- Vd/F (Normal Hepatic Function, read-out: VZ/F, Arithmetic Mean): 1340 L
- Vd/F (Normal Hepatic Function, read-out: VZ/F, Geometric Mean): 1310 L
- Vd/F (Normal Hepatic Function, read-out: VZ/F, Median): 1190 L
- half-life (Normal Hepatic Function, read-out: t1/2, Arithmetic Mean (converted)): 17.9 ± 8.6 h
- half-life (Normal Hepatic Function, read-out: t1/2, Geometric Mean (converted)): 16.3 h
- half-life (Normal Hepatic Function, read-out: t1/2, Median (converted)): 16.9 h
- Tmax (Normal Hepatic Function, read-out: tmax, Arithmetic Mean): 2.5 h
- Tmax (Normal Hepatic Function, read-out: tmax, Geometric Mean): 2.2 h
- Tmax (Normal Hepatic Function, read-out: tmax, Median): 2 h
- concentration at 0.5 h [4]: 17.7 ng/mL
- concentration at 0.5 h [5]: 15.2 ng/mL
- concentration at 0.5 h [6]: 6.8 ng/mL
- concentration at 1 h [4]: 136 ng/mL
- concentration at 1 h [5]: 92.9 ng/mL
- concentration at 1 h [6]: 74.4 ng/mL
- concentration at 2 h [4]: 226 ng/mL
- concentration at 2 h [5]: 204 ng/mL
- concentration at 2 h [6]: 236 ng/mL
- concentration at 3 h [4]: 216 ng/mL
- concentration at 3 h [5]: 192 ng/mL
- concentration at 3 h [6]: 199 ng/mL
- concentration at 4 h [4]: 164 ng/mL
- concentration at 4 h [5]: 149 ng/mL
- concentration at 4 h [6]: 147 ng/mL
- concentration at 6 h [4]: 131 ng/mL
- concentration at 6 h [5]: 117 ng/mL
- concentration at 6 h [6]: 106 ng/mL
- concentration at 8 h [4]: 99.4 ng/mL
- concentration at 8 h [5]: 89.5 ng/mL
- concentration at 8 h [6]: 81 ng/mL
- concentration at 12 h [4]: 67.8 ng/mL
- concentration at 12 h [5]: 63.2 ng/mL
- concentration at 12 h [6]: 61.9 ng/mL
- concentration at 16 h [4]: 48.8 ng/mL
- concentration at 16 h [5]: 45.7 ng/mL
- concentration at 16 h [6]: 49.7 ng/mL
- concentration at 24 h [4]: 43.2 ng/mL
- concentration at 24 h [5]: 40.4 ng/mL
- concentration at 24 h [6]: 43 ng/mL
- concentration at 36 h [4]: 23.9 ng/mL
- concentration at 36 h [5]: 21.3 ng/mL
- concentration at 36 h [6]: 24.2 ng/mL
- concentration at 48 h [4]: 14.9 ng/mL
- concentration at 48 h [5]: 14.8 ng/mL
- concentration at 48 h [6]: 15.9 ng/mL
- exposure in mild or moderate hepatic impairment compared to normal hepatic function (same amount of rivoceranib): do not have a statistically significant difference in exposure

— US20260207572A1, “METHODS AND COMPOSITIONS FOR TREATMENT OF SUBJECTS WITH HEPATIC IMPAIRMENTS” (ELEVAR THERAPEUTICS, INC., priority 2022, published 2026)
